{"source": "patent US9856219B2", "about": "“Substituted quinoline compounds as S-nitrosoglutathione reductase inhibitors” (Nivalis Therapeutics, Inc., priority 2010, dated 2018)", "key": {"[1]": {"system": "cigarette smoke-induced COPD (BALF cells)", "assay": "Subchronic (11 day) cigarette smoke exposure COPD model", "format": "in vivo, female C57Bl/6 mice", "conditions": "for effects compared to positive control roflumilast: roflumilast 5 mg/kg/day", "experimental": "(§1) The efficacy of GSNOR inhibitors was assessed in a mouse model of chronic obstructive pulmonary disease (COPD) induced by short duration (4 days or 11 days) of exposure to cigarette smoke. Infiltration of inflammatory cells into the bronchoalveolar lavage fluid (BALF) and BALF levels of chemokines involved in inflammation and tissue turnover/repair were measured to assess the influences of GSNOR inhibitors on some of the early events associated with the initiation and progression of COPD.\nEfficacy of GSNOR inhibitors against COPD was explored using acute (4 day) and subchronic (11 day) models of cigarette smoke-induced COPD in mice. […] In animal models, changes in lung pathology are only evident after extended (several months) duration of exposure to cigarette smoke, thus making chronic models prohibitive as effective screening tools. More recently, models exploring inflammatory responses after short duration (2 weeks or less) of smoke exposure in mice have been utilized as tools for screening efficacy and mechanisms of action of novel therapeutics against COPD. The key roles of inflammation in the initiation and progression of COPD, make these short duration models relevant for initial tests of efficacy of novel therapeutics.\nFemale C57Bl/6 mice (N=10 per group) were exposed to cigarette smoke generated from Marlboro 100 cigarettes without filters. Exposure times were 25 min. on study day 1, 35 min. on study day 2, and 45 min. on study days 3 to 11. GSNOR inhibitors were administered one hour prior to smoke exposure on each day. GSNOR inhibitors were dosed orally at 1 to 10 mg/kg/day for 11 days. The effects of GSNOR inhibitors were assessed by quantitating the number of total cells, and leukocytes differentials in the BALF via light microscopy at 24 h after the last exposure. The effect of GSNOR inhibitors were compared to vehicle treated controls and expressed as percent inhibition of the cigarette smoke induced increases in BALF cell numbers. Roflumilast was used as the positive control for the study and was dosed at 5 mg/kg/day. A group of naïve mice (N=10) was exposed to air and dosed with vehicle as a negative control for the study."}, "chronic DSS-induced IBD": {"system": "chronic DSS-induced IBD", "assay": "Chronic treatment model of DSS-induced IBD", "format": "in vivo, male C57Bl/6 mice", "conditions": "oral 10 mg/kg/day for up to 14 consecutive days, treatment regimen; p<0.05", "description": "Acute and chronic models of dextran sodium sulfate (DSS)-induced IBD in mice were used to explore efficacy of GSNORi against this disease. Acute and chronic DSS-induced IBD are widely used and well characterized models that induce pathological changes in the colon similar to those observed in the human disease. In these models and in human disease, epithelial cells within the crypts of the colon are disrupted, leading to dysfunction of the epithelial barrier and the ensuing tissue inflammation, edema, and ulceration. GSNORi therapy may benefit IBD by restoring s-nitrosoglutathione (GSNO) levels, and thus prevent or reverse the epithelial barrier dysfunction.\nExperimental IBD was induced by administration of DSS in the drinking water of male C57Bl/6 mice (N=10 to 12 mice per group) for 6 consecutive days. GSNORi was dosed orally at doses of 10 mg/kg/day for 14 days starting one day after cessation of DSS exposure. Efficacy of GSNORi was assessed in a blinded fashion via endoscopy after 7 days and 14 days of GSNORi dosing and via histopathology after 14 days of GSNORi dosing using a five point scale ranging from a score=0 (normal tissue) through a score=4 (ulcerative tissue damage and marked pathological changes). Levels of circulating cytokines involved in inflammatory pathways were also assessed. […] Naïve mice (N=5) were also assessed as a normal tissue control."}, "acute DSS-induced IBD": {"system": "acute DSS-induced IBD", "assay": "Acute prophylactic model of DSS-induced IBD", "format": "in vivo, male C57Bl/6 mice", "description": "Acute and chronic models of dextran sodium sulfate (DSS)-induced IBD in mice were used to explore efficacy of GSNORi against this disease. Acute and chronic DSS-induced IBD are widely used and well characterized models that induce pathological changes in the colon similar to those observed in the human disease. In these models and in human disease, epithelial cells within the crypts of the colon are disrupted, leading to dysfunction of the epithelial barrier and the ensuing tissue inflammation, edema, and ulceration. GSNORi therapy may benefit IBD by restoring s-nitrosoglutathione (GSNO) levels, and thus prevent or reverse the epithelial barrier dysfunction. Experimental IBD was induced by administration of DSS in the drinking water of male C57Bl/6 mice (N=8 to 10 mice per group) for 6 consecutive days. GSNORi was dosed orally at doses of 0.1 to 10 mg/kg/day for 10 days starting two days prior to and continuing two days post DSS exposure. Two days post DSS exposure, the effect of GSNORi was assessed in a blinded fashion via endoscopy and histopathology using a five point scale ranging from a score=0 (normal tissue) through a score=4 (ulcerative tissue damage and marked pathological changes). Levels of circulating cytokines involved in inflammatory pathways were also assessed. The effect of GSNORi was compared to vehicle treated controls. The corticosteroid, prednisolone, was used as the positive control in this study and was administered daily at 3 mg/kg/day via oral dosing. Naïve mice (N=5) were also assessed as a normal tissue control."}, "[2]": {"system": "cigarette smoke-induced COPD (BALF cells and chemokines)", "assay": "Acute (4 day) cigarette smoke exposure COPD model", "format": "in vivo, female C57Bl/6 mice", "conditions": "oral 10 mg/kg/day for 7 days", "experimental": "as §1\nEfficacy of GSNOR inhibitors against COPD was explored using acute (4 day) and subchronic (11 day) models of cigarette smoke-induced COPD in mice. […] In animal models, changes in lung pathology are only evident after extended (several months) duration of exposure to cigarette smoke, thus making chronic models prohibitive as effective screening tools. […]\nFemale C57Bl/6 mice (N=8 per group) were exposed to cigarette smoke using a whole body exposure chamber. […] The effects of GSNOR inhibitors were assessed by quantitating the numbers of total cells, leukocytes, and leukocytes differentials in the BALF via light microscopy and the levels of BALF chemokines via ELISA at approximately 24 h after the last smoke exposure. […]"}, "[3]": {"conditions": "oral 10 mg/kg/day for 10 consecutive days, prophylactic regimen"}}, "data": [{"smiles": "Cc1cc(C(=O)O)ccc1-c1ccc2cc(O)ccc2n1", "note": "[Compound 27, 4-(6-hydroxyquinolin-2-yl)-3-methylbenzoic acid]", "values": [{"measurement": "effects compared to positive control roflumilast", "setting": "[1]", "value": "comparable to those of roflumilast"}]}, {"smiles": "O=C(O)c1ccc(-c2ccc3cc(O)ccc3n2)c(F)c1", "note": "[Compound 13, 3-fluoro-4-(6-hydroxyquinolin-2-yl)benzoic acid]", "values": [{"measurement": "decrease of percent of mice with severe colon injury scores via endoscopy, of vehicle control", "setting": "chronic DSS-induced IBD", "value": 52, "unit": "%"}, {"measurement": "decrease of percent of mice with severe colon injury scores via histopathology, of vehicle control", "setting": "chronic DSS-induced IBD", "value": 53, "unit": "%"}, {"measurement": "effects compared to positive control roflumilast", "setting": "[1]", "value": "comparable to those of roflumilast"}]}, {"smiles": "O=C(O)c1ccc(-c2ccc3cc(O)ccc3n2)c(Cl)c1", "note": "[Compound 8, 3-chloro-4-(6-hydroxyquinolin-2-yl)benzoic acid]", "values": [{"measurement": "decrease of percent of mice with severe colon injury scores via endoscopy, of vehicle control", "setting": "acute DSS-induced IBD; [3]", "value": 44, "unit": "%"}, {"measurement": "decrease of percent of mice with severe colon injury scores via histopathology, of vehicle control", "setting": "acute DSS-induced IBD; [3]", "value": 26, "unit": "%"}, {"measurement": "dose response of effect", "setting": "[1]; oral 1, 5, or 10 mg/kg/day", "value": "no dose response"}, {"measurement": "effects compared to positive control roflumilast", "setting": "[1]", "value": "comparable to those of roflumilast"}]}, {"smiles": "O=C(O)c1ccc(-c2ccc3cc(O)ccc3n2)cc1", "note": "[Compound 3, 4-(6-hydroxyquinolin-2-yl)benzoic acid]", "values": [{"measurement": "circulating inflammatory cytokines", "setting": "acute DSS-induced IBD; oral 0.1, 1, or 10 mg/kg/day for 10 days, prophylactic regimen", "value": "restored circulating inflammatory cytokines towards levels observed in untreated naïve mice"}, {"measurement": "effects compared to positive control prednisolone", "setting": "acute DSS-induced IBD; prednisolone 3 mg/kg/day oral", "value": "comparable to or greater than those observed for prednisolone"}, {"measurement": "BALF chemokines", "setting": "[2]", "value": "restored BALF chemokines towards levels observed in naïve mice"}, {"measurement": "effects compared to positive control roflumilast", "setting": "[2]", "value": "comparable to or greater than those observed for roflumilast"}]}]}
